Source: patent publication US20120258980A1, “Antibacterial Agent for Drug-Resistant Bacteria, Method for Screening for Same, and Use of Same” (priority 2009, published 2012)
Converted amounts (≈) assume the structure as drawn.

Assays:
[1] = system: methicillin-susceptible S. aureus (MSSA), MRSA and mutants thereof; experiment: MIC measurement, Test Example 3 (MSSA, MRSA and sequential gyrA/grlA quinolone-resistant mutants); assay type: cell-based, Staphylococcus aureus
Source text: That is, the first-step quinolone-resistant mutants are bacterial strains which are the same as their parent strains (clinical isolates) except that the genes shown in the corresponding parts of Table 1-1 are mutated. The second-step quinolone-resistant mutants are bacterial strains which are the same as the first-step quinolone-resistant mutants except that the genes shown in the corresponding parts of Table 1-1 are further mutated. The third-step quinolone-resistant mutants are bacterial strains which are the same as the second-step quinolone-resistant mutants except that the genes shown in the corresponding parts of Table 1-1 are further mutated. The fourth-step quinolone-resistant strain is a bacterial strain which is the same as the third-step quinolone-resistant mutant bacteria except that the gene shown in the corresponding part of Table 1-1 is further mutated.
(§1) Each of the bacterial strains listed in Table 1-1 was shake-cultured at 37° C. overnight in 4 mL of a medium (Tryptical Soy Broth: TSB, product of Becton Dickinson and Company). FDA209P was used as a control.
(§2) After completion of culturing, the resultant culture was suspended in a cation-adjusted Mueller Hinton Broth (CAMHB, product of Becton Dickinson and Company). Then, the obtained bacterial culture was adjusted in absorbance with the CAMHB so that the absorbance at 578 nm of the bacterial culture was adjusted to 0.3 measured by an absorption spectrometer. In addition, the resultant bacterial culture was 500-fold diluted with the CAMHB.
(§3) Each of the 500-fold diluted, pre-cultured bacterial cultures was added at 50 μL/well to the CAMHB containing the quinolones and the nybomycins at various concentrations (50 μL/well), followed by statically culturing at 37° C. overnight.
(§4) After completion of culturing, the growth of the bacteria was visually determined based on turbidity to measure MIC in each bacterial strain.

[2] = system: MRSA, CA-MRSA and MSSA of Staphylococcus aureus; experiment: MIC measurement, Test Example 4 (MRSA, CA-MRSA and MSSA strains); assay type: cell-based
Procedure: as §1, §2, §3, §4
Glycopeptides, imipenem, quinolones and nybomycins were studied for antibacterial activity against the bacterial strains listed in Table 2-1; i.e., MRSA, CA-MRSA and MSSA of Staphylococcus aureus.

[3] = system: Enterococcus faecalis; experiment: MIC measurement, Test Example 6 (enterococcus); assay type: cell-based
Procedure: as §1, §2, §3, §4
Quinolones and nybomycins were evaluated for antibacterial activity against Enterococcus faecalis shown in Table 6, wherein the other strains than NCTC12201 and NCTC12203 were subdivided from Shionogi & Co., Ltd (note that these strains are available also from the Department of Bacteriology, Juntendo University). The NCTC strains are both vancomycin-resistant E. faecalis and available from the National Collection of Type Cultures (NCTC).

## Cl.O=C(O)c1cn(C2CC2)c2cc(N3CCNCC3)c(F)cc2c1=O [CPFX, ciprofloxacin chloride]
[1]; MR5867-1, first-step quinolone-resistant mutant, grlA E84K
  MIC: 2 µg/mL
[1]; MR5867-2, second-step mutant, further gyrA S84L
  MIC: 32 µg/mL
[1]; MS5935-1, first-step quinolone-resistant mutant, grlA S80F
  MIC: 2 µg/mL
[1]; MS5935-2, second-step mutant, further gyrA S84L
  MIC: 32 µg/mL
[1]; MS5952-1, first-step quinolone-resistant mutant, grlA S80Y
  MIC: 2 µg/mL
[1]; MS5952-2, second-step mutant, further gyrA S84L
  MIC: 8 µg/mL
[1]; MS5952-3, third-step mutant, further grlA A116V
  MIC: 64 µg/mL
[2]; ISA12-1, MRSA
  MIC: 0.5 µg/mL
[2]; ISA35-1, MRSA
  MIC: 4 µg/mL
[2]; ISA51-1, MSSA
  MIC: 0.5 µg/mL
[2]; ISA58-1, MRSA
  MIC: 0.5 µg/mL
[2]; ISA73-1, MSSA
  MIC: 0.5 µg/mL
[2]; KBSA34, MRSA
  MIC: 0.5 µg/mL
[2]; KBSA72, MRSA
  MIC: 128 µg/mL
[2]; KBSA96, MRSA
  MIC: 32 µg/mL
[2]; KBSA171, MRSA
  MIC: 64 µg/mL
[2]; KSA24, MRSA
  MIC: 32 µg/mL
[2]; KSA31, MRSA
  MIC: 8 µg/mL
[2]; KSA36, MRSA
  MIC: 128 µg/mL
[2]; USA300 FPR3757, CA-MRSA
  MIC: 16 µg/mL
[3]; E. faecalis 36-15672, quinolone-susceptible enterococci
  MIC: 1 µg/mL
[3]; E. faecalis 36-15673, quinolone-susceptible enterococci
  MIC: 1 µg/mL
[3]; E. faecalis 36-15678, quinolone-susceptible enterococci
  MIC: 1 µg/mL
[3]; E. faecalis 36-15686, quinolone-resistant enterococci
  MIC: 128 µg/mL
[3]; E. faecalis 36-15688, quinolone-susceptible enterococci
  MIC: 1 µg/mL
[3]; E. faecalis 36-15694, quinolone-resistant enterococci
  MIC: 32 µg/mL
[3]; E. faecalis 36-15696, quinolone-susceptible enterococci
  MIC: 1 µg/mL
[3]; E. faecalis 36-15703, quinolone-resistant enterococci
  MIC: 32 µg/mL
[3]; E. faecalis 36-15716, quinolone-resistant enterococci
  MIC: 128 µg/mL
[3]; E. faecalis 36-15718, quinolone-susceptible enterococci
  MIC: 1 µg/mL
[3]; E. faecalis 36-15720, quinolone-susceptible enterococci
  MIC: 2 µg/mL
[3]; E. faecalis 36-15722, quinolone-resistant enterococci
  MIC: 64 µg/mL
[3]; E. faecalis 36-15726, quinolone-resistant enterococci
  MIC: 64 µg/mL
[3]; E. faecalis 36-15730, quinolone-susceptible enterococci
  MIC: 2 µg/mL
[3]; E. faecalis 36-15736, quinolone-susceptible enterococci
  MIC: 1 µg/mL
[3]; E. faecalis 36-15741, quinolone-susceptible enterococci
  MIC: 2 µg/mL
[3]; E. faecalis NCTC12201, vancomycin-resistant (VRE), quinolone-susceptible enterococci
  MIC: 1 µg/mL
[3]; E. faecalis NCTC12203, vancomycin-resistant (VRE), quinolone-susceptible enterococci
  MIC: 1 µg/mL

## C[C@@H](O)[C@H]1C(=O)N2C(C(=O)O)=C(SCCN=CN)C[C@H]12 [IPM, imipenem]
[2]; Staphylococcus aureus, ATCC 29213 / MRSA / MSSA, ATCC 29213, MSSA
  MIC: < 0.03 µg/mL
[2]; Staphylococcus aureus, COL, MRSA
  MIC: 64 µg/mL (≈ 214 µM)
[2]; Staphylococcus aureus, FDA209P / MRSA / MSSA, FDA209P, MSSA
  MIC: < 0.03 µg/mL
[2]; Staphylococcus aureus, ISA12-1, MRSA
  MIC: 16 µg/mL (≈ 53.4 µM)
[2]; Staphylococcus aureus, ISA12-2, MRSA
  MIC: 16 µg/mL (≈ 53.4 µM)
[2]; Staphylococcus aureus, ISA35-1, MRSA
  MIC: 1 µg/mL (≈ 3.34 µM)
[2]; Staphylococcus aureus, ISA37-1, MSSA
  MIC: 0.125 µg/mL (≈ 0.418 µM)
[2]; Staphylococcus aureus, ISA49-1, MSSA
  MIC: 0.25 µg/mL (≈ 0.835 µM)
[2]; Staphylococcus aureus, ISA51-1, MSSA
  MIC: 0.25 µg/mL (≈ 0.835 µM)
[2]; Staphylococcus aureus, ISA56-3, MRSA
  MIC: 16 µg/mL (≈ 53.4 µM)
[2]; Staphylococcus aureus, ISA58-1, MRSA
  MIC: 0.125 µg/mL (≈ 0.418 µM)
[2]; Staphylococcus aureus, ISA62-1, MRSA
  MIC: 2 µg/mL (≈ 6.68 µM)
[2]; Staphylococcus aureus, ISA73-1, MSSA
  MIC: 0.25 µg/mL (≈ 0.835 µM)
[2]; Staphylococcus aureus, KBSA32, MRSA
  MIC: 0.25 µg/mL (≈ 0.835 µM)
[2]; Staphylococcus aureus, KBSA34, MRSA
  MIC: 0.25 µg/mL (≈ 0.835 µM)
[2]; Staphylococcus aureus, KBSA72, MRSA
  MIC: 0.125 µg/mL (≈ 0.418 µM)
[2]; Staphylococcus aureus, KBSA96, MRSA
  MIC: 0.25 µg/mL (≈ 0.835 µM)
[2]; Staphylococcus aureus, KBSA171, MRSA
  MIC: 0.25 µg/mL (≈ 0.835 µM)
[2]; Staphylococcus aureus, KSA24, MRSA
  MIC: 0.5 µg/mL (≈ 1.67 µM)
[2]; Staphylococcus aureus, KSA31, MRSA
  MIC: 0.125 µg/mL (≈ 0.418 µM)
[2]; Staphylococcus aureus, KSA36, MRSA
  MIC: 0.5 µg/mL (≈ 1.67 µM)
[2]; Staphylococcus aureus, MRSA / MSSA / NCTC 8325, NCTC 8325, MSSA
  MIC: ≤ 0.063 µg/mL
[2]; Staphylococcus aureus, MRSA / MSSA / USA300, USA300 FPR3757, CA-MRSA
  MIC: 2 µg/mL (≈ 6.68 µM)
[2]; Staphylococcus aureus, MW2, CA-MRSA
  MIC: 2 µg/mL (≈ 6.68 µM)
[2]; Staphylococcus aureus, N315, MRSA
  MIC: 8 µg/mL (≈ 26.7 µM)
